Assay results as given in paper PMC12319374, “Efficient and Rapid Arylation of NH₂‐Unprotected Bromobisindole Ethanamines via Suzuki‐Miyaura Coupling: Generating New Leads Against Leishmania” (Chemistry (Weinheim an Der Bergstrasse, Germany), 2025).
Where two headings read alike, the source gives them in different places.

Columns and labels:
[1] = test system: L. infantum MHOM/TN/80/IPT1 promastigotes; test: L. infantum promastigotes viability assay (MTS); type: cell-based, Leishmania infantum; conditions: Leishmania infantum, 72 h; for inhibition at 20 µM: single dose 20 µM
Procedure: (§1) Finally, eighteen compounds were first screened for efficacy against L. infantum MHOM/TN/80/IPT1 promastigotes at a single dose of 20 µM for 72 hours.
(§2) L. infantum MHOM/TN/80/IPT1 (WHO international reference strain) was purchased from ATCC (ATCC® 50134™) and was cultured in Evans's Modified Tobie Medium (EMTM) at 26–28 °C. To test the compounds, parasites were resuspended in RPMI-PY medium as described previously. The human monocytic cell line THP-1 (ECACC 88081201) was cultured in RPMI-1640 medium supplemented with 10% heat-inactivated Fetal Bovine Serum (FBS), 100 μg/ml streptomycin, […] and maintained in a humidified incubator at 37 °C and 5% CO2. All the cell culture reagents were purchased from Sigma-Aldrich (St. Louis, MO, USA).
Late log/stationary phase L. infantum promastigotes were resuspended in RPMI-PY medium at a density of 2.5×10^6 parasites/mL in 96-well plates (100μL/well). The anti-parasitic activity of the eighteen compounds of the library was initially investigated at a single dose of 20 μM for 72 h at 26 °C. […] Not treated parasites were included as negative control. As positive control, the anti-leishmanial drug miltefosine (Sigma-Aldrich, Milan, Italy) was used. Each condition was carried out in duplicate. To evaluate the promastigotes viability, the CellTiter 96H Aqueous Non-Radioactive Cell Proliferation Assay (Promega), based on the ability of viable cells to convert a soluble tetrazolium salt [3-(4.5-dimethylthiazol-2-yl)-5-(3-carboxymethoxy-phenyl)-2-(4-sulfophenyl)-2H-tetrazolium. MTS] to a formazan product, was performed. To this end, 20 μL of MTS/PMS (phenazinemethosulfate, Sigma-Aldrich) was added to 100 μL of culture medium and incubated at 26°C until formazan production. Absorbance was recorded on a Microplate Reader (Infinite® F50 Plus, Tecan) at 492 nm. The IC50 values were calculated using nonlinear regression curves in GraphPad Prism 8.0 (GraphPad Software,Inc., San Diego, CA). The equation used for data fitting was Y= 100/(1 + 10∧((Log IC50 −X)*HillSlope)) (hillslope not constrained), where X is the log of concentration and Y is the normalized response. […]

[2] = test system: THP-1 cells; test: Evaluation of cytotoxicity on THP-1 cells (MTS); type: cell-based, human; conditions: for Cytotoxicity on THP‐1 (100, 20, 4 µM) (%): 72 h, PMA-differentiated THP-1
Procedure: as §1, §2
(§3) The cytotoxicity of the compounds was assessed on THP-1 cells seeded at a density of 5 × 10^5 cells per mL, 100μL/well in a 96-well plate and treated for 72 h with 20 ng/mL phorbol myristic acid (PMA) to induce differentiation into macrophages like cells. After cell adhesion to the plate, each molecule was tested at 4, 20 and 100 μM for 72 h at 37 °C.
(§4) Three selected compounds were further evaluated at different concentration, obtained from scalar dilutions 1:2 (from 100 µM to 3.12 μM) for 72 h at 37°C. The negative control (untreated THP-1 cells) and the positive control (miltefosine) were included in each experiment. Each condition was carried out in duplicate. To evaluate the compounds cytotoxicity, the CellTiter 96H Aqueous Non-Radioactive Cell Proliferation Assay (Promega), was used as described before. […]

[3] = Evaluation of cytotoxicity on THP-1 cells (MTS); type: cell-based, human; conditions: human, 72 h
Procedure: as §1, §2, §3, §4

[4] = roughly determined from 100, 20 and 4 µM, read-out: CC50 interval on THP-1 cells

SMILES | inhibition at 20 µM [1] | Cytotoxicity on THP‐1 (100, 20, 4 µM) (%) ([2]; 4 µM) | Cytotoxicity on THP‐1 (100, 20, 4 µM) (%) ([2]; 20 µM) | Cytotoxicity on THP‐1 (100, 20, 4 µM) (%) ([2]; 100 µM) | CC50 at 72 h [3, 4] | IC50 ([1]; scalar dilutions 2:3 from 20 to 1.17 µM, mean (95% CI)) | CC50 at 72 h ([3]; scalar dilutions 1:2 from 100 to 3.12 µM, mean (95% CI), read-out: THP‐1 CC50 (µM) (95% CI)) | SI (Selectivity index = CC50/IC50) ([2]; CC50 THP-1 (72 h) / IC50 L. infantum promastigotes (72 h))
NCC(c1c[nH]c2cc(-c3ccccc3)ccc12)c1c[nH]c2cc(-c3ccccc3)ccc12 [3aa, 2,2-bis(6-phenyl-1H-indol-3-yl)ethan-1-amine] | 96.2% | −18% | 97% | 87% | – | – | – | –
NCC(c1c[nH]c2cc(-c3ccc(F)cc3)ccc12)c1c[nH]c2cc(-c3ccc(F)cc3)ccc12 [3ab, 2,2-bis(6-(4-fluorophenyl)-1H-indol-3-yl)ethan-1-amine] | 97.1% | −33% | 97% | 85% | – | – | – | –
CC(C)Cc1ccc(-c2ccc3c(C(CN)c4c[nH]c5cc(-c6ccc(CC(C)C)cc6)ccc45)c[nH]c3c2)cc1 [3ac, 2,2-bis(6-(4-isobutylphenyl)-1H-indol-3-yl)ethan-1-amine] | ≤ 51.4% | −17% | 1% | 88% | 20 to 100 µM | – | – | –
COc1ccc(-c2ccc3c(C(CN)c4c[nH]c5cc(-c6ccc(OC)cc6)ccc45)c[nH]c3c2)cc1 [3ad, 2,2-bis(6-(4-methoxyphenyl)-1H-indol-3-yl)ethan-1-amine] | 95.1% | −12% | 96% | 86% | – | – | – | –
NCC(c1c[nH]c2cc(-c3cccc(Cl)c3)ccc12)c1c[nH]c2cc(-c3cccc(Cl)c3)ccc12 [3ag, 2,2-bis(6-(3-chlorophenyl)-1H-indol-3-yl)ethan-1-amine] | 93.6% | −7% | 97% | 84% | – | – | – | –
NCC(c1c[nH]c2cc(-c3cccc(-c4ccccc4)c3)ccc12)c1c[nH]c2cc(-c3cccc(-c4ccccc4)c3)ccc12 [3ah, 2,2-bis(6-([1,1'-biphenyl]-3-yl)-1H-indol-3-yl)ethan-1-amine] | – | −20% | 32% | 77% | 20 to 100 µM | – | – | –
NCC(c1c[nH]c2cc(-c3cccc(OCc4ccccc4)c3)ccc12)c1c[nH]c2cc(-c3cccc(OCc4ccccc4)c3)ccc12 [3ai, 2,2-bis(6-(3-(benzyloxy)phenyl)-1H-indol-3-yl)ethan-1-amine] | – | 1% | 90% | 72% | – | – | – | –
COc1cccc(-c2ccc3c(C(CN)c4c[nH]c5cc(-c6cccc(OC)c6)ccc45)c[nH]c3c2)c1 [3aj, 2,2-bis(6-(3-methoxyphenyl)-1H-indol-3-yl)ethan-1-amine] | 96.5% | 2% | 97% | 85% | – | – | – | –
COc1ccccc1-c1ccc2c(C(CN)c3c[nH]c4cc(-c5ccccc5OC)ccc34)c[nH]c2c1 [3ak, 2,2-bis(6-(2-methoxyphenyl)-1H-indol-3-yl)ethan-1-amine] | 96.5% | −4% | 97% | 86% | – | – | – | –
COc1cccc(OC)c1-c1ccc2c(C(CN)c3c[nH]c4cc(-c5c(OC)cccc5OC)ccc34)c[nH]c2c1 [3al, 2,2-bis(6-(2,6-dimethoxyphenyl)-1H-indol-3-yl)ethan-1-amine] | ≤ 51.4% | −5% | 47% | 84% | 20 to 100 µM | – | – | –
NCC(c1c[nH]c2cc(-c3cccc4ccccc34)ccc12)c1c[nH]c2cc(-c3cccc4ccccc34)ccc12 [3an, 2,2-bis(6-(naphthalen-1-yl)-1H-indol-3-yl)ethan-1-amine] | 97.8% | −15% | 95% | 79% | – | – | – | –
NCC(c1c[nH]c2cc(-c3ccc4ccccc4c3)ccc12)c1c[nH]c2cc(-c3ccc4ccccc4c3)ccc12 [3ao, 2,2-bis(6-(naphthalen-2-yl)-1H-indol-3-yl)ethan-1-amine] | 95.1% | −13% | 94% | 76% | – | – | – | –
CC(C)(C)OC(=O)n1cccc1-c1ccc2c(C(CN)c3c[nH]c4cc(-c5cccn5C(=O)OC(C)(C)C)ccc34)c[nH]c2c1 [3ap, di-tert-butyl 2,2'-((2-aminoethane-1,1-diyl)bis(1H-indole-3,6-diyl))bis(1H-pyrrole-1-carboxylate)] | 92.6% | 22% | 97% | 85% | – | – | – | –
NCC(c1c[nH]c2cc(/C=C/c3ccc(Cl)cc3)ccc12)c1c[nH]c2cc(/C=C/c3ccc(Cl)cc3)ccc12 [3ar, 2,2-bis(6-((E)-4-chlorostyryl)-1H-indol-3-yl)ethan-1-amine] | 95.1% | −32% | 95% | 66% | – | – | – | –
NCC(c1c[nH]c2ccc(-c3ccccc3)cc12)c1c[nH]c2ccc(-c3ccccc3)cc12 [3ba, 2,2-bis(5-phenyl-1H-indol-3-yl)ethan-1-amine] | 96.8% | −22% | 98% | 91% | – | – | – | –
CCCCCCCCCCCCCCCCOP(=O)([O-])OCC[N+](C)(C)C [Milt, miltefosine, reference compound] | 98.5% | −35% | 6% | 99% | – | 3.7 µM | 36.6 µM | 9.8
